Data from PMC12630348, “Evidence of an activity-enhancing conformational shift in Arabidopsis thaliana plant cysteine oxidase 4 induced by binding of substrate or substrate-mimics” (The Journal of Biological Chemistry, 2025).

Legend:
recombinant AtPCO4 [1] = biological target: T1, recombinant AtPCO4 (Arabidopsis thaliana, UniProt Q9SJI9); test: Substrate only assay: anaerobic preincubation of AtPCO4 with RAP2.12_2—17; assay type: biochemical
T1 construct: His tag followed by thrombin site (N); made in house; host or cells: E. coli BL21(DE3)
Experimental: The assay plate was immediately removed to aerobic conditions, initiating the reaction. Samples were taken at 0 s, 2 min, 5 min, 10 min, 15 min, and 20 min and quenched in 5% (v/v) formic acid.
(§1) Spectra were assessed manually in MassHunter Qualitative Analysis B.07.00 software (Agilent) to ensure the correct ion was chosen for peptide oxidation quantification. RapidFire Integrator.exe was used to integrate areas of product and substrate ions (ii) an Acquity Ultra-high performance liquid chromatography system (Waters) coupled to a Xevo G2-XS Q-ToF mass spectrometer (Waters) operated in positive electrospray mode. Instrument parameters, data acquisition and data processing were controlled by MassLynx V4.1 software (Waters). Source parameters were adjusted to maximize sensitivity and minimize fragmentation. […] TOF mass scan range 50.00—2500.00 Da. Spectra were assessed manually in MassLynx V4.1 software (Waters) to ensure the correct ion was chosen for peptide oxidation quantification. MassLynx V4.1 software (Waters) was used to integrate areas of product and substrate ions.
(§2) Integration values obtained by MS were subsequently used to quantify reaction turnover (μmol of substrate oxidized per mg of enzyme), and graphs were generated using Prism 10 (GraphPad).

recombinant AtPCO4 [2] = biological target: T1, recombinant AtPCO4; test: AtPCO4 activity toward RAP2.12_2—17 after 6 min aerobic preincubation of enzyme with peptidomimetic or control peptide (time course, LC-MS); assay type: biochemical; conditions: 200 μM peptide, 6 min aerobic preincubation with 0.1 μM AtPCO4; 20 μM RAP2.12_2—17; 25 °C
Experimental: (§3) Recombinant AtPCO4 was expressed using BL21(DE3) Escherichia coli cells containing the plasmid pET-28a(+)-His-THROMBIN-AtPCO4, and purified using Ni^2+-affinity and size exclusion chromatography as described in ([59]). WT AtPCO4 along with AtPCO4 Cys190Ala and AtPCO4 ADO loop variants were purified using this method. WT AtPCO4 reactivity toward the peptidomimetics was assessed by incubating (0.1 μM) recombinant enzyme with (200 μM) peptidomimetic in assay buffer (assay buffer: 50 mM Bis-tris propane, 40 mM NaCl, pH 8) supplemented with 20 μM FeSO4, 1 mM ascorbate, 5 mM TCEP, at 25 °C for 20 min prior to quenching in 5% (v/v) formic acid.
(§4) Reaction samples taken at 0 s, 30 s, 60 s, 90 s, 2 min, 5 min, 10 min, 15 min, and 20 min intervals were quenched in 5% (v/v) formic acid.
as §1, §2

recombinant AtPCO4 [3] = biological target: T1, recombinant AtPCO4; test: AtPCO4 activity toward RAP2.12_2—17 with peptidomimetic, without peptidomimetic-AtPCO4 preincubation; assay type: biochemical; conditions: 200 μM peptidomimetic, 0.1 μM AtPCO4, 20 μM RAP2.12_2—17, 25 °C
Experimental: To test the significance of the peptidomimetic-AtPCO4 preincubation step, the method above was modified so that either 0 or 400 μM peptidomimetic was instead in mixture (ii) (Fig. 9B). Mixtures were again incubated separately at 25 °C for 6 min before being combined in equal volumes, initiating the reaction. Samples were taken and quenched in 5% (v/v) formic acid.
as §1, §2

AtPCO4 Cys190Ala variant = test: Cys190Ala AtPCO4 variant activity toward RAP2.12_2—17 after preincubation with peptidomimetic; assay type: biochemical, Arabidopsis thaliana
Experimental: as §3, §4
Figure S15 Investigating the potential formation of a Cys190-Tyr192 activity-enhancing crosslink. […] Standard conditions: 5 mM TCEP, 20 μM FeSO4, 1 mM ascorbate, 25 °C. […] Error bars display S.D (n=3).

recombinant AtPCO4 [4] = biological target: T1, recombinant AtPCO4; test: AtPCO4 activity toward RAP2.12_2—15 or RAP2.12_2—17 in the presence and absence of peptidomimetic 10 (Fig. S16); assay type: biochemical; conditions: 14-mer RAP2.12 substrate, slope of turnover against time (minutes)
Experimental: as §4
Standard conditions: 5 mM TCEP, 20 μM FeSO4, 1 mM ascorbate, 25 °C. Turnover calculated as μmol RAP2.122—15/17 oxidised per […] of AtPCO4 (data shown is not normalised). Error bars display S.D (n=3).

| x (slope between 0-5 min), Peptidomimetic rxn / CP rxn (recombinant AtPCO4 [2]) | x (slope between 0-5 min), Peptidomimetic rxn, no preincubation (recombinant AtPCO4 [3]) | Substance | other results |
| --- | --- | --- | --- |
|  |  | RAP2.12_2—17: 16-mer N-terminal L-Cys substrate peptide of AtPCO4 representing AtRAP2.12, purchased from GL Biochem (CGGAIISDFIPPPRSR; UniProt Q9SSA8 2-17, looked up, fragment) | x (slope between 5-15 min), Preincubation rxn (recombinant AtPCO4 [1]; 20 μM RAP2.12_2—17, 6 min anaerobic preincubation with 0.1 μM WT AtPCO4): 0.099; x (slope between 5-15 min), Preincubation rxn (recombinant AtPCO4 [1]; 50 μM RAP2.12_2—17, 6 min anaerobic preincubation with 0.1 μM WT AtPCO4): 0.275; x (slope between 5-15 min), No Preincubation (recombinant AtPCO4 [1]; 50 μM RAP2.12_2—17, no preincubation with AtPCO4 (anaerobic preparation)): 0.175; x (slope between 5-15 min), Preincubation rxn (recombinant AtPCO4 [1]; 100 μM RAP2.12_2—17, 6 min anaerobic preincubation with 0.1 μM WT AtPCO4): 0.34; x (slope between 5-15 min), No Preincubation (recombinant AtPCO4 [1]; 100 μM RAP2.12_2—17, no preincubation with AtPCO4 (anaerobic preparation)): 0.209; x (slope between 5-15 min), Preincubation rxn (recombinant AtPCO4 [1]; 200 μM RAP2.12_2—17, 6 min anaerobic preincubation with 0.1 μM WT AtPCO4): 0.303; x (slope between 5-15 min), No Preincubation (recombinant AtPCO4 [1]; 200 μM RAP2.12_2—17, no preincubation with AtPCO4 (anaerobic preparation)): 0.15 |
| 0.28 |  | XGGAIISDFIPPPR [Peptidomimetic 1, 14-mer X… mimic of RAP2.12 with N-terminal X = D-Cys] |  |
|  | 0.05853 | XGGAIISDFIPPPR [Peptidomimetic 2, 14-mer X… with N-terminal X = homocysteine] |  |
|  | 0.01063 | XGGAIISDFIPPPR [Peptidomimetic 3, 14-mer X… with N-terminal X = penicillamine] |  |
| 0.31 |  | XGGAIISDFIPPPR [Peptidomimetic 4, 14-mer X… with N-terminal X = S-methyl cysteine (linear thioether)] |  |
| 0.18 |  | XGGAIISDFIPPPR [Peptidomimetic 6, 14-mer X… with N-terminal X = TM3C (thiomorpholine, cyclized thioether)] |  |
|  | 0.1162 | XGGAIISDFIPPPR [Peptidomimetic 8, 14-mer X… with N-terminal X = Nα-Me-Cys] |  |
|  | 0.07282 | XGGAIISDFIPPPR [Peptidomimetic 10, 14-mer X… with N-terminal X = Ser] | x (slope between 0-5 min), Peptidomimetic rxn (recombinant AtPCO4 [4]): 0.6491 |
| 0.29 |  | XGGAIISDFIPPPR [Peptidomimetic 11, 14-mer X… with N-terminal X = hSer] |  |
|  | 0.03158 | XGGAIISDFIPPPR [Peptidomimetic 12, 14-mer X… with N-terminal X = AlG] |  |
| 0.34 |  | XGGAIISDFIPPPR [Peptidomimetic 13, 14-mer X… with N-terminal X = Pra] |  |

| Substance | x (slope between 0-5 min), Peptidomimetic rxn / CP rxn (recombinant AtPCO4 [2]) | x (slope between 0-5 min), Peptidomimetic rxn, no preincubation (recombinant AtPCO4 [3]) | other results |
| --- | --- | --- | --- |
| XGGAIISDFIPPPR [Peptidomimetic 7, 14-mer X… with N-terminal X = 3MePro, Cys-analogue devoid of an amino group] | 0.78 | 0.03853 | increase in the initial rate of RAP2.12_2—17 oxidation between 0—5 min, Cys190Ala AtPCO4 variant (AtPCO4 Cys190Ala variant; 200 μM peptidomimetic, 6 min preincubation with 0.1 μM C190A AtPCO4, 20 μM RAP2.12_2—17, relative to control without peptidomimetic (=1), 25 °C, n = 3): 5.21 fold; Initial rate: x (slope between 0-5 min), Peptidomimetic rxn (AtPCO4 Cys190Ala variant; C190A AtPCO4, slope of turnover time course between 0-5 min): 0.4559 |
